Data on 1 substance can be found in patent US10441681B2, “Materials and methods for nerve grafting” (University of Florida Research Foundation, Inc., priority 2001, dated 2019).

Common to all, as to assay type: in vivo
Assay [1] has as its system rat sciatic nerve. Put plainly: Human-to-rat acellular nerve xenograft model (GAP-43 axonal profiles). To be noted: 8-day acellular human nerve grafts in rat, 2 host rats. Here is the method: In the following experiments, the hypothesis that chondroitinase treatment improves nerve regeneration through acellular human nerve grafts in a rat xenograft model was tested. Subunits (individual fascicles) taken from human nerves were treated en bloc with vehicle or chondroitinase ABC. Ten-mm interpositional nerve grafts were joined to the rat host sciatic nerve by epineurial neurorrhaphy reinforced with fibrin glue. Each of 2 host rats received bilateral grafts, one vehicle-treated and one chondroitinase-treated graft. Regeneration was initially examined after 8 days. Axonal growth was assessed at specified spatial intervals within the graft by scoring GAP-43-immunopositive profiles in transverse sections.
(Xenograft models place foreign cells or tissue in a host animal.)

Assay [2] relates to rat sciatic nerve. The assay is described as follows: Axonal regeneration into acellular interpositional nerve grafts (GAP-43 profiles). The text has this: Adult (180-200 g) female SPRAGUE DAWLEY rats (HARLAN, Indianapolis, Ind.) were used as nerve donors and recipient hosts. Donor rats were anesthetized with halothane and decapitated. Sciatic nerves were exposed through a gluteal muscle-splitting incision and isolated free of underlying fascia. A 15-mm nerve segment was excised rostral to the bifurcation into common peroneal and tibial nerves. The segments were rinsed with cold sterile Ringer's solution, stabilized by pinning the ends to a thin plastic support, and transferred to a cryogenic vial. The vials were submerged in liquid nitrogen for 2 minutes and then transferred to a 37° C. water bath for 2 minutes. This freeze/thaw cycle was repeated, yielding acellular nerve grafts that were then stored in liquid nitrogen. On the day before grafting, the nerve grafts were warmed to room temperature and incubated in 100 μl phosphate buffered saline pH 7.4 (PBS) containing 2 units/ml chondroitinase ABC (SIGMA, St. Louis, Mo.) or in PBS (vehicle) only for 16 hours at 37° C. The grafts were rinsed twice with Ringer's and kept on ice prior to use. The chondroitinase ABC preparation was highly purified and stated by the manufacturer to be essentially free of protease activity.
Twelve rats received bilateral acellular nerve grafts, one chondroitinase-treated and one vehicle-treated graft. Host rats were deeply anesthetized using xylazine (15 mg/kg, i.m.) and ketamine (110 mg/kg, i.p.). The sciatic nerve was exposed and supported by a plastic insert placed between the nerve and underlying tissue. The region of nerve halfway between the sciatic notch and bifurcation was first coated with fibrin glue. Using serrated scissors, a 2.5-mm segment of host nerve was excised and replaced with a freshly trimmed 10-mm acellular nerve graft. The graft was coapted to the host nerve stumps by epineurial neurorrhaphy using one 9-0 ETHILON suture at each end. […] The muscle was closed with 4-0 sutures and the skin with wound clips. After recovery from the anesthetic, animals were returned to standard housing.
Nine rats were terminated at 8 days and four at 4 days after grafting. Animals were deeply anesthetized and decapitated. The graft and 3 mm of proximal and distal host nerve were removed, immersed in 4% paraformaldehyde in 0.1 M phosphate buffer (pH 7.4) overnight at 4° C. The specimens were equilibrated with PBS and immersed in 30% sucrose/phosphate buffer for 2 days at 4° C. […]
The main grafts were sectioned serially on the transverse plane in recorded measure to assess the extent of axonal growth by microscopy. […] GAP-43-positive axon profiles were scored using IMAGE-PRO PLUS software (MEDIA CYBERNETICS, Silver Springs, Md.). […]

The subject of assay [3] is rat sciatic nerve. The assay is described as follows: Axonal regeneration after sciatic nerve transection (neurotmesis) and neurorrhaphic repair. The protocol:
All surgical procedures were performed according to Institutional Animal Care and Use Committee (IACUC) approved protocols. Young adult SPRAGUE DAWLEY rats (HARLAN Indianapolis, Ind.) were deeply anesthetized with xylazine (15 mg/kg, i.m.) followed by ketamine-HCl (110 mg/kg, i.p.). Six animals received bilateral nerve crush injuries. Sciatic nerves were exposed and then crushed with firm pressure for thirty seconds with a DUMONT #5 forceps at a site 4 mm distal to the tendon of the internal obdurator. The crush site was marked with an epineurial suture. In a separate set of experiments, eight rats received bilateral sciatic nerve transection injuries using serrated scissors. The proximal and distal stumps were coated by epineurial neurorrhaphy using 9-0 ETHILON sutures. Fibrin glue (fibrinogen and thrombin) was then applied to stabilize the union. In both injury models, the right sciatic nerves were injected 2-mm distal to the injury with chondroitinase ABC (1 U in 2 μl) (high-purity, protease-free; SIGMA CHEMICAL CO., St. Louis, […].). Left sciatic nerves (with the same injury as the right side) were injected with vehicle alone (0.1% bovine serum albumin in PBS). Muscle incisions were sutured and the skin closed with metal clips. After recovery from the anesthetic, animals were returned to standard housing. Two days (for crush injury) and four days (for transection injury) after surgery, nerves were removed under anesthesia and fixed as described below. One of the eight animals receiving nerve transection and repair was excluded because loss of continuity in one nerve occurred during convalescence.
The hypothesis that chondroitinase treatment improves axonal growth through the site of nerve coaptation was tested. Bilateral neurotmesis was achieved by a scissor cut of the sciatic nerves which were then repaired by epineurial suture and fibrin glue. One nerve was injected with chondroitinase ABC and the contralateral nerve received vehicle alone. Because of the latency of regeneration after nerve transection, axonal growth across the coaptation was examined four days after injury. In control nerves, the ingress of axons occurred mainly in patches and was limited to discrete subsections of the distal nerve; otherwise only a few axons were found scattered throughout the remaining nerve cross-section, as shown in FIG. 14A. The number of axons extending farther into the distal (after 4 days) rapidly diminished and approached zero within 3 mm from the coaptation. In contrast, axon ingress into chondroitinase-treated nerves was more robust and widespread throughout the entire nerve cross-section. In 7/7 animals, the number of axons that entered the distal nerve was greater in the chondroitinase-treated nerve than in the control nerve. […]

Take chondroitinase ABC: the “average number of axons (GAP-43-immunopositive profiles) entering grafts vs control grafts” value in the assay with rat sciatic nerve [1] was “more than three-fold greater”; with rat sciatic nerve [2] (8-day acellular syngrafts, en bloc treated, n=9) it was “more than three-fold greater”. Further, the “axonal penetration vs vehicle-treated grafts” value in the assay with rat sciatic nerve [2] (4-day grafts, 0.3 mm from the host-graft interface, 3 animals) was “five-fold greater”. Moreover, in the assay on rat sciatic nerve [2] (8-day grafts), the “number of axons at the distal ends of grafts vs control” value is on record as “a similar number of axons”. For the same substance, the “propensity of axons to grow within basal laminae” value in the assay with rat sciatic nerve [2] (8-day grafts, GAP-43/laminin double label) is given as “unaltered”. In addition, the “propensity of axons to regrow within basal laminae of the distal nerve” value in the assay with rat sciatic nerve [3] (GAP-43/laminin double-immunolabeling) is “unaltered”. For the same substance, the “animals in which the number of axons entering the distal nerve was greater than in the control nerve” value in the assay with rat sciatic nerve [3] (four days after injury) is 7/7. Further, the “score of axons immediately distal to the coaptation vs control nerves” value in the assay with rat sciatic nerve [3] (four days after transection and repair, 1 U in 2 μl injected, n=7) is given as “two-fold greater”. In addition, the “animals with increases greater than 3.5-fold” value in the assay on rat sciatic nerve [3] (score of axons immediately distal to the coaptation, four days) is recorded as 3/7.
